Key:
in vivo = assay: in vivo; design: species or system Swiss albino mice; conditions: mouse; for tissue uptake at 0.5 h / tissue uptake at 1 h / tissue uptake at 4 h / tissue uptake at 48 h / tissue uptake at 72 h / tissue uptake at 24 h: Swiss albino, iv, 10 pmol peptide, total radioactivity, %ID/g tissue
Method: Samples of blood and tissues of interest were excised, weighted and counted for radioactivity in the gamma counter (automated well-type multi-sample gamma counter; NaI(Tl) 3'' crystal, Canberra Packard Auto-Gamma 5000 series instrument). Data was calculated as percent injected dose per gramtissue (%ID/g) with the aid of suitable standards of the injected dose. Statistical analysis using the unpaired two-tailed Student's t-test was performed to compare values between A431-CCK2R(+) and A431-CCK2R(-) tumours, as well as kidney, stomach and A431-CCK2R(+) tumour values between 4 h control and gelofusine-treated animal groups; values P < 0.05 were considered statistically significant (Table 2). The pharmacokinetic profile was determined by fitting an exponential curve through the organ time-activity data according to the least-squares method. The number of exponentials in the fitted curve was analysed according to the […] Information Criterion (AICc). All fitting was performed with Graphpad Prism version 5.

[1] = design: species or system mice
Method: (§1) Clearance kinetics in each organ was determined by exponential curve fitting. The time-integrated activity concentration (TIAC) was obtained by integration of this exponential curve folded with the decay curve of ^111In and ^177Lu.Mouse dosimetry was calculated for both ^177Lu and ^111In using the TIAC and the 25 g RADAR mouse absorbed dose rates per unit activity S for each source and target organ combination ([Keenan et al., 2010]; [Konijnenberg et al., 2014]).

[2] = design: species or system humans
Method: as §1
Extrapolation of biodistribution uptake data in mice to humans was based on two options for interspecies scaling ([Stabin, 2008]). 1. (%IA/organ)human=[(%IA/g)mouse×Mmouse(kg)]×(m(g)/M(kg))human with m the organ mass and M the total body weight of mouse or human and with %IA/gand%IA/organ the percentage of the injected activity concentration and per organ, respectively. The mouse organ TIACs are multiplied with the ratio of mouse and human body weights Mmouse/Mhuman to obtain the extrapolated human TIAC, and this multiplied with the organ mass (from the MIRD standard man phantom) yields the residence time in each source organ. 2. (%IA/organ)human=(%IA/organ)mouse=(%IA/g)mouse×mmouse in this method the uptake per organ is extrapolated one-to-one from mouse to man. The extrapolated human residence time is obtained by multiplying the mouse TIAC or each source organ with its mouse organ mass. […]

CSCC[C@H](NC(=O)[C@H](Cc1c[nH]c2ccccc12)NC(=O)CNC(=O)[C@H](Cc1ccc(O)cc1)NC(=O)[C@H](C)NC(=O)[C@@H](CCC(=O)O)NC(=O)[C@@H](CCC(=O)O)NC(=O)[C@@H](CCC(=O)O)NC(=O)[C@@H](CCC(=O)O)NC(=O)[C@@H](CCC(=O)O)NC(=O)[C@@H](CCC(=O)O)NC(=O)CN1CCN(CC(=O)O)CCN(CC(=O)O)CCN(CC(=O)O)CC1)C(=O)N[C@@H](CC(=O)O)C(=O)N[C@@H](Cc1ccccc1)C(N)=O [^111In-CP04, ^111In-DOTA-(DGlu)6-Ala-Tyr-Gly-Trp-Met-Asp-Phe-NH2, metal not drawn]
tissue uptake at 0.5 h (in vivo; Blood): 1.74 ± 0.22 %ID/g
tissue uptake at 1 h (in vivo; Blood): 0.51 ± 0.14 %ID/g
tissue uptake at 4 h (in vivo; Blood): 0.02 ± 0.01 %ID/g
tissue uptake at 48 h (in vivo; Blood): 0.01 ± 0.01 %ID/g
tissue uptake at 72 h (in vivo; Blood): 0.01 ± 0.01 %ID/g
tissue uptake at 0.5 h (in vivo; Femur): 4.62 ± 1.24 %ID/g
tissue uptake at 1 h (in vivo; Femur): 2.62 ± 0.42 %ID/g
tissue uptake at 4 h (in vivo; Femur): 0.96 ± 0.18 %ID/g
tissue uptake at 24 h (in vivo; Femur): 0.53 ± 0.04 %ID/g
tissue uptake at 48 h (in vivo; Femur): 0.55 ± 0.11 %ID/g
tissue uptake at 72 h (in vivo; Femur): 0.49 ± 0.06 %ID/g
tissue uptake at 0.5 h (in vivo; Heart): 0.7 ± 0.1 %ID/g
tissue uptake at 4 h (in vivo; Heart): 0.03 ± 0.01 %ID/g
tissue uptake at 24 h (in vivo; Heart): 0.02 ± 0.01 %ID/g
tissue uptake at 48 h (in vivo; Heart): 0.02 ± 0.01 %ID/g
tissue uptake at 72 h (in vivo; Heart): 0.03 ± 0.02 %ID/g
tissue uptake at 0.5 h (in vivo; Intestines): 0.82 ± 0.14 %ID/g
tissue uptake at 1 h (in vivo; Intestines): 0.39 ± 0.12 %ID/g
tissue uptake at 4 h (in vivo; Intestines): 1.05 ± 0.35 %ID/g
tissue uptake at 48 h (in vivo; Intestines): 0.08 ± 0.02 %ID/g
tissue uptake at 72 h (in vivo; Intestines): 0.09 ± 0.04 %ID/g
tissue uptake at 0.5 h (in vivo; Kidneys): 9.8 ± 2.07 %ID/g
tissue uptake at 1 h (in vivo; Kidneys): 8.84 ± 2.05 %ID/g
tissue uptake at 4 h (in vivo; Kidneys): 7.9 ± 1.98 %ID/g
tissue uptake at 24 h (in vivo; Kidneys): 3.61 ± 0.31 %ID/g
tissue uptake at 48 h (in vivo; Kidneys): 2.81 ± 0.63 %ID/g
tissue uptake at 72 h (in vivo; Kidneys): 2.62 ± 0.24 %ID/g
tissue uptake at 0.5 h (in vivo; Liver): 0.77 ± 0.11 %ID/g
tissue uptake at 1 h (in vivo; Liver): 0.32 ± 0.15 %ID/g
tissue uptake at 24 h (in vivo; Liver): 0.06 ± 0.01 %ID/g
tissue uptake at 48 h (in vivo; Liver): 0.06 %ID/g
tissue uptake at 72 h (in vivo; Liver): 0.05 ± 0.01 %ID/g
tissue uptake at 0.5 h (in vivo; Lung): 1.05 ± 0.1 %ID/g
tissue uptake at 1 h (in vivo; Lung): 0.4 ± 0.1 %ID/g
tissue uptake at 4 h (in vivo; Lung): 0.06 ± 0.01 %ID/g
tissue uptake at 24 h (in vivo; Lung): 0.03 ± 0.01 %ID/g
tissue uptake at 48 h (in vivo; Lung): 0.02 ± 0.01 %ID/g
tissue uptake at 72 h (in vivo; Lung): 0.03 ± 0.01 %ID/g
tissue uptake at 0.5 h (in vivo; Muscle): 0.59 ± 0.1 %ID/g
tissue uptake at 4 h (in vivo; Muscle): 0.04 ± 0.02 %ID/g
tissue uptake at 24 h (in vivo; Muscle): 0.02 ± 0.01 %ID/g
tissue uptake at 48 h (in vivo; Muscle): 0.03 ± 0.02 %ID/g
tissue uptake at 72 h (in vivo; Muscle): 0.03 ± 0.02 %ID/g
tissue uptake at 0.5 h (in vivo; Pancreas): 0.67 ± 0.08 %ID/g
tissue uptake at 4 h (in vivo; Pancreas): 0.1 ± 0.01 %ID/g
tissue uptake at 24 h (in vivo; Pancreas): 0.05 ± 0.01 %ID/g
tissue uptake at 48 h (in vivo; Pancreas): 0.04 ± 0.01 %ID/g
tissue uptake at 72 h (in vivo; Pancreas): 0.06 ± 0.03 %ID/g
tissue uptake at 0.5 h (in vivo; Spleen): 0.36 ± 0.04 %ID/g
tissue uptake at 4 h (in vivo; Spleen): 0.05 ± 0.01 %ID/g
tissue uptake at 24 h (in vivo; Spleen): 0.04 ± 0.01 %ID/g
tissue uptake at 48 h (in vivo; Spleen): 0.03 ± 0.01 %ID/g
tissue uptake at 72 h (in vivo; Spleen): 0.04 ± 0.01 %ID/g
tissue uptake at 0.5 h (in vivo; Stomach): 4.88 ± 0.85 %ID/g
tissue uptake at 1 h (in vivo; Stomach): 2.99 ± 0.55 %ID/g
tissue uptake at 4 h (in vivo; Stomach): 2.61 ± 0.82 %ID/g
tissue uptake at 24 h (in vivo; Stomach): 1.48 ± 0.55 %ID/g
tissue uptake at 48 h (in vivo; Stomach): 1.26 ± 0.26 %ID/g
tissue uptake at 72 h (in vivo; Stomach): 0.92 ± 0.04 %ID/g
gastrointestinal tract clearance (in vivo): 2.5%
total body clearance T1/2, fast component (90%) (in vivo): 17 min
total body clearance, fraction of fast component (in vivo): 90%
total body clearance, fraction of slow component (in vivo): 10%
Absorbed dose per injected activity, Bone [1]: 9 mGy/MBq
Absorbed dose per injected activity, Kidneys [1]: 56 mGy/MBq
Absorbed dose per injected activity, Large intestine [1]: 7 mGy/MBq
Absorbed dose per injected activity, Liver [1]: 3 mGy/MBq
Absorbed dose per injected activity, Lungs [1]: 3 mGy/MBq
Absorbed dose per injected activity, Pancreas [1]: 5 mGy/MBq
Absorbed dose per injected activity, Small intestine [1]: 7 mGy/MBq
Absorbed dose per injected activity, Spleen [1]: 3 mGy/MBq
Absorbed dose per injected activity, Stomach wall [1]: 15 mGy/MBq
Absorbed dose per injected activity, Total body [1]: 4 mGy/MBq
calculated absorbed dose for kidneys [2]: 27.5 mGy/220 MBq
expected whole body radiation dose (effective dose) [2]: 9.9 mSv

From publication PMC4948680 (European journal of pharmaceutical sciences : official …, 2016)
